Where two headings read alike, the source gives them in different places. Each block holds one molecule with its values, some of them ahead of it.
Columns and labels:
[1] = 1-Naphthaldehyde decay/depletion in human liver microsomes and Supersomes; assay type: in vitro ADME
CYP2C19 = CYP2C19 (Homo sapiens, UniProt P33261); assay: Steady-state kinetics by recombinant CYP2C19 Supersomes; assay type: in vitro ADME
[2] = cited from earlier work
[3] = Time-course decay of TBF-A in HLM, control Supersomes and isozyme Supersomes; assay type: in vitro ADME, human
[4] = substrate: CN(C/C=C/C#CC(C)(C)C)Cc1cccc2ccccc12; assay: cells, lysate or membranes named; details: CYP2C19, pH 7.4
[5] = step 2.2a, metabolite 1-naphthyl-methylamine, CYP2C19
[6] = step 2.2b, metabolite 1-naphthaldehyde, CYP2C19
[7] = 50 μM TBF-A, normalized per mg/protein

Molecule: O=Cc1cccc2ccccc12 [1-naphthaldehyde]
effect of microsomes and NADPH on decay or disappearance ([1]; 50 μM 1-naphthaldehyde, active or heat-inactivated human liver microsomes, presence or absence of NADPH): not significantly affected | depletion in Supersomes compared with human liver microsomes ([1]; 10 and 50 μM 1-naphthaldehyde, NADPH, CYP2C19 and 3A4 Supersomes, after 30 min): more significant decrease

Molecule: CC(C)(C)C#C/C=C/CNCc1cccc2ccccc12 [desmethyl-terbinafine]
Km higher than the value for terbinafine N-denaphthylation (Pathway 3) (CYP2C19; CYP2C19): about 5 fold | decrease in N-denaphthylation catalytic efficiency from terbinafine to desmethyl-terbinafine (CYP2C19; CYP2C19): ~15 fold | higher rate of turnover (Vmax) than for the parent drug (CYP2C19; N-denaphthylation by CYP2C19): about 3 fold | efficiency of 1-naphthyl methylamine formation by CYP2C19 relative to 3A4 (CYP2C19; Pathway 2.2a): about 3 fold | higher Vmax for CYP2C19 (CYP2C19; formation of the desmethyl-terbinafine dihydrodiols, loss of the methyl group): approximately 10 fold | Km (CYP2C19; read-out: Km (affinity), CYP2C19, oxidative nondealkylation reactions): < 100 µM | Km (CYP2C19; [5]): 220 ± 55 µM | V/K (CYP2C19; [5]): 3.7 | Vmax (CYP2C19; [5]): 810 ± 92 pmol/min/nmol of protein | Km (CYP2C19; [6]): 150 ± 58 µM | V/K (CYP2C19; [6]): 8.7 | Vmax (CYP2C19; [6]): 1300 ± 59 pmol/min/nmol of protein

Km at 30 min (CYP2C19; human, recombinant CYP2C19 Supersomes, pH 7.4, Km (affinity), CYP2C19, oxidative nondealkylation reactions): < 100 µM
Molecule: CN(C/C=C/C#CC(C)(C)C)Cc1cccc2ccccc12 [terbinafine]
time remaining at therapeutic levels in the body after therapy ceases ([2]; due to bioaccumulation): up to a month | plasma levels ([2]; reported): 1000 ng/mL | protein binding ([2]; reported): > 99%

end-point plateau for CYP3A4 higher than that of HLM ([3]; 50 μM TBF-A decay): ~4 fold | end-point plateau of CYP2C19 higher than for both HLM and control Supersomes ([3]; 50 μM TBF-A decay): roughly 2 fold | decay faster in HLM compared to CYP2C19 Supersomes [3, 7]: 13% | decay faster in HLM compared to CYP3A4 Supersomes [3, 7]: 55%
Molecule: CC(C)(C)C#CC=CC=O [TBF-A, 6,6-dimethyl-2-hepten-4-ynal]

B1: CYP2C19 (Homo sapiens) (protein)
chain: MDPFVVLVLCLSCLLLLSIWRQSSGRGKLPPGPTPLPVIGNILQIDIKDVSKSLTNLSKIYGPVFTLYFGLERMVVLHGYEVVKEALIDLGEEFSGRGHFPLAERANRGFGIVFSNGKRWKEIRRFSLMTLRNFGMGKRSIEDRVQEEARCLVEELRKTKASPCDPTFILGCAPCNVICSIIFQKRFDYKDQQFLNLMEKLNENIRIVSTPWIQICNNFPTIIDYFPGTHNKLLKNLAFMESDILEKVKEHQESMDINNPRDFIDCFLIKMEKEKQNQQSEFTIENLVITAADLLGAGTETTSTTLRYALLLLLKHPEVTAKVQEEIERVIGRNRSPCMQDRGHMPYTDAVVHEVQRYIDLIPTSLPHAVTCDVKFRNYLIPKGTTILTSLTSVLHDNKEFPNPEMFDPRHFLDEGGNFKKSNYFMPFSAGKRICVGEGLARMELFLFLTFILQNFNLKSLIDPKDLDTTPVVNGFASVPPFYQLCFIPV
Km ([4]; other: step 1.1, metabolite N-methyl-1-naphthyl-methylamine): 120 ± 22 µM | Km ([4]; other: step 2.1, metabolite desmethyl-terbinafine): 37 ± 6.7 µM | Km ([4]; other: step 3.1, metabolite 1-naphthaldehyde): 3.0 ± 0.83 µM

Source: paper PMC6692898 (Chemical research in toxicology, 2019)
